ChEMBL document CHEMBL4043145, “Pyridine-pyrimidine amides that prevent HGF-induced epithelial scattering by two distinct mechanisms” (Bioorg Med Chem Lett, 2017)
The source made the active and inactive calls. The rule behind the calls is not given here.

Key:
A2780 [1] = experiment: Antiproliferative activity against human A2780 cells; type: functional, cell-based
MCF7 [2] = experiment: Antiproliferative activity against human MCF7 cells at 10 uM relative to control; type: functional, cell-based
[3] = (§1) Inhibition of bovine brain tubulin polymerization; set-up: species or system Bos taurus
Bos taurus [4] = species on record: Bos taurus; experiment: as §1
MDCK-II [5] = experiment: Antimigratory activity against MDCK2 cells assessed as inhibition of HGF-induced cell scattering pretreated for 18 hrs followed by HGF addition measured after 20 to 24 hrs by crystal violet staining-based assay; type: functional; details: Canis lupus familiaris
MDA-MB-468 = experiment: Antiproliferative activity against human MDA-MB-468 cells at 10 uM relative to control; type: functional
MDCK-II [6] = experiment: Antimigratory activity against MDCK2 cells assessed as inhibition of HGF-induced cell scattering at 1 uM pretreated for 18 hrs followed by HGF addition measured after 20 to 24 hrs by crystal violet staining-based assay relative to control; type: functional; details: Canis lupus familiaris
MFE-280 [7] = experiment: Cell cycle arrest in human MFE280 cells assessed as accumulation at G1 phase at 300 nM (reference value: 64.99 to 67.86%); type: functional
MFE-280 [8] = experiment: Cell cycle arrest in human MFE280 cells assessed as accumulation at S phase at 300 nM (reference value: 14.14 to 15.66%); type: functional
A2780 [9] = experiment: Cell cycle arrest in human A2780 cells assessed as accumulation at G2/M phase at 300 nM (reference value: 19.42 to 20.43%); type: functional
MCF7 [10] = experiment: Cell cycle arrest in human MCF7 cells assessed as accumulation at G2/M phase at 300 nM (reference value: 20.06 to 22.33%); type: functional
MFE-280 [11] = experiment: Cell cycle arrest in human MFE280 cells assessed as accumulation at G2/M phase at 300 nM (reference value: 16.43 to 17.9%); type: functional
A2780 [12] = experiment: Cell cycle arrest in human A2780 cells assessed as accumulation at G1 phase at 300 nM (reference value: 55.26 to 55.66%); type: functional
MFE-296 [13] = experiment: Cell cycle arrest in human MFE296 cells assessed as accumulation at S phase at 300 nM (reference value: 16.96 to 19.19%); type: functional
T47D [14] = experiment: Cell cycle arrest in human T47D cells assessed as accumulation at S phase at 300 nM (reference value: 19.89 to 24.55%); type: functional
PC-3 [15] = experiment: Cell cycle arrest in human p53-null PC3 cells assessed as accumulation at G2/M phase at 300 nM (reference value: 18.37 to 18.96%); type: functional
A2780 [16] = experiment: Cell cycle arrest in human A2780 cells assessed as accumulation at S phase at 300 nM (reference value: 21.16 to 22.81%); type: functional
MFE-296 [17] = experiment: Cell cycle arrest in human MFE296 cells assessed as accumulation at G2/M phase at 300 nM (reference value: 15.71 to 17.04%); type: functional
MFE-296 [18] = experiment: Cell cycle arrest in human MFE296 cells assessed as accumulation at G1 phase at 300 nM (reference value: 61.05 to 64.87%); type: functional
T47D [19] = experiment: Cell cycle arrest in human T47D cells assessed as accumulation at G2/M phase at 300 nM (reference value: 20.58 to 28.8%); type: functional
PC-3 [20] = experiment: Cell cycle arrest in human p53-null PC3 cells assessed as accumulation at G1 phase at 300 nM (reference value: 50.77 to 51.16%); type: functional
PC-3 [21] = experiment: Cell cycle arrest in human p53-null PC3 cells assessed as accumulation at S phase at 300 nM (reference value: 29.08 to 29.33%); type: functional
MCF7 [22] = experiment: Cell cycle arrest in human MCF7 cells assessed as accumulation at G1 phase at 300 nM (reference value: 47.47 to 52.3%); type: functional
T47D [23] = experiment: Cell cycle arrest in human T47D cells assessed as accumulation at G1 phase at 300 nM (reference value: 45.5 to 57.8%); type: functional
MCF7 [24] = experiment: Cell cycle arrest in human MCF7 cells assessed as accumulation at S phase at 300 nM (reference value: 25.36 to 26.82%); type: functional
Bos taurus [25] = species on record: Bos taurus; experiment: Inhibition of colchicine binding to bovine brain tubulin up to 25 uM by fluorescence based assay relative to control
[26] = Binding affinity to tubulin (unknown origin) by isothermal titration calorimetric analysis; set-up: species or system Homo sapiens
Homo sapiens = species on record: Homo sapiens; experiment: Binding affinity to tubulin (unknown origin) by CD spectroscopic method
[27] = Antimigratory activity against human SW.71 cells at 10 uM after 18 hrs by crystal violet staining-based assay relative to control; type: functional; details: SW.71, 18 h

| Compound | EC50 (A2780 [1]) | EC50 (MCF7 [2]) | also measured |
| --- | --- | --- | --- |
| O=C(Nc1ccc(-c2ccccc2)cc1)c1cncnc1 | > 10000 nM | > 10000 nM |  |
| O=C(Nc1ccc(-c2ccccc2Cl)cn1)c1cncnc1 | 255 nM | 127 nM |  |
| O=C(Nc1ccc(-c2ccco2)cn1)c1cncnc1 | 196 nM | 605 nM |  |
| Cc1ncc(C(=O)Nc2ccc(-c3cccc(NC4CC4)c3)cn2)cn1 |  |  | IC50 [3]: 319 nM; inhibition (Bos taurus [4]): Dose-dependent effect |
| O=C(Nc1ccc(-c2ccccc2)cn1)c1cnc(-c2ccco2)nc1 | 1530 nM | > 10000 nM |  |
| O=C(Cc1cncnc1)Nc1ccc(-c2ccccc2)cn1 | > 10000 nM | > 10000 nM |  |
| O=C(Nc1cncnc1)c1ccc(-c2ccccc2)cn1 | > 10000 nM | > 10000 nM |  |
| CN(C(=O)c1cnccn1)c1ccc(-c2ccccc2)cn1 | > 10000 nM | > 10000 nM |  |
| c1ccc(-c2ccc(NCc3cncnc3)nc2)cc1 | > 10000 nM | > 10000 nM |  |
| O=C(Nc1ccc(-c2ccncc2)cn1)c1cncnc1 | 4680 nM | > 10000 nM |  |
| O=C(Nc1ccc(-c2ccsc2)cn1)c1cncnc1 | 60 nM | 66 nM |  |
| O=C(Nc1ncc(-c2ccccc2)cn1)c1cncnc1 | 68 nM | 272 nM |  |
| Cc1ncc(C(=O)Nc2ccc(-c3cccc(C4CC4)c3)cn2)cn1 |  |  | IC50 [3]: 885 nM; inhibition (Bos taurus [4]): Dose-dependent effect |
| O=C(Nc1ccc(-c2ccc(Cl)cc2)cn1)c1cncnc1 | > 10000 nM | > 10000 nM |  |
| O=C(Nc1ccc(-c2ccccc2)cn1)c1cnccn1 | 102 nM | 317 nM |  |
| O=C(COc1cncnc1)Nc1ccc(-c2ccccc2)cn1 | > 10000 nM | > 10000 nM |  |
| O=C(Nc1ccc(-c2ccccc2)cn1)c1nccnc1-c1ccccc1 | > 10000 nM | > 10000 nM |  |
| Cc1ccc(C(=O)Nc2ccc(-c3cccc(C4CCO4)c3)cn2)cn1 (configuration not stated) |  |  | IC50 [3]: 295 nM; inhibition (Bos taurus [4]): Dose-dependent effect |
| Cc1nc(NC(=O)c2cccc([N+](=O)[O-])c2)ccc1I |  |  | EC50 (MDCK-II [5]): 3000 nM; inhibition at 10 µM (MDA-MB-468): 73%; inhibition at 10 µM (MCF7 [2]): 84%; inhibition at 1 µM (MDCK-II [6]): 71 to 95.9% |
| O=C(Nc1ccc(-c2ccccc2)cn1)c1cncnc1-c1ccccc1 | > 10000 nM | > 10000 nM |  |
| O=S(=O)(Nc1ccc(-c2ccccc2)cn1)c1cccnc1 | > 10000 nM | > 10000 nM |  |
| Cc1ncc(C(=O)Nc2ccc(-c3cccc(OC4CC4)c3)cn2)cn1 |  |  | IC50 [3]: 817 nM; inhibition (Bos taurus [4]): Dose-dependent effect |

| Compound | EC50 (A2780 [1]) | EC50 (MCF7 [2]) | also measured |
| --- | --- | --- | --- |
| CNc1ncc(C(=O)Nc2ccc(-c3ccccc3)cn2)cn1 | 49 nM | 149 nM |  |
| O=C(Nc1ccc(-c2ccccc2)cn1)c1ncccn1 | > 10000 nM | > 10000 nM |  |
| O=C(Nc1ccc(-c2ccoc2)cn1)c1cncnc1 | 271 nM | 205 nM |  |
| O=C(Nc1ccc(C2CC2)cn1)c1cncnc1 | 464 nM | 776 nM |  |
| O=C(Nc1cnc(-c2ccccc2)cn1)c1cncnc1 | > 10000 nM | 8330 nM |  |
| CC(=O)O[C@H]1C(=O)[C@@]2(C)[C@H]([C@H](OC(=O)c3ccccc3)[C@]3(O)C[C@H](OC(=O)[C@H](O)[C@@H](NC(=O)c4ccccc4)c4ccccc4)C(C)=C1C3(C)C)[C@]1(OC(C)=O)CO[C@@H]1C[C@@H]2O [PACLITAXEL] |  |  | Activity (MFE-280 [7]): 34.74%; Activity (MFE-280 [8]): 22.1%; Activity (A2780 [9]): 70.7%; Activity (MCF7 [10]): 86.54%; Activity (MFE-280 [11]): 39.59%; Activity (A2780 [12]): 13.37%; Activity (MFE-296 [13]): 19.73%; Activity (T47D [14]): 27.89%; Activity (PC-3 [15]): 70.82%; Activity (A2780 [16]): 10.42%; Activity (MFE-296 [17]): 51.88%; Activity (MFE-296 [18]): 26.72%; Activity (T47D [19]): 41.49%; Activity (PC-3 [20]): 8.25%; Activity (PC-3 [21]): 20.78%; Activity (MCF7 [22]): 3.43%; Activity (T47D [23]): 30.62%; Activity (MCF7 [24]): 7.07% |
| Cc1ncc(C(=O)Nc2ccc(-c3cccc(S(=O)(=O)C4CC4)c3)cn2)cn1 |  |  | inhibition (Bos taurus [25]): 70%; Kd [26]: 190 nM; Activity (Homo sapiens): Active; IC50 [3]: 240 nM; inhibition (Bos taurus [4]): Dose-dependent effect |
| O=C(Nc1ccc(-c2cccnc2)cn1)c1cncnc1 | 5920 nM | 6970 nM |  |
| Cc1ncc(C(=O)Nc2ccc(-c3ccccc3)cn2)cn1 | 29 nM | 109 nM |  |
| O=C(Nc1ccc(-c2cccc(C3CC3)c2)cn1)c1cncnc1 |  |  | IC50 [3]: 1030 nM; inhibition (Bos taurus [4]): Dose-dependent effect |
| O=C(Nc1ccc(-c2ccccc2)cn1)c1cccnc1 | 78 nM | 220 nM |  |
| O=C(Nc1ccc(-c2ccccc2)cn1)c1ccncn1 | > 10000 nM | > 10000 nM |  |
| O=C(Nc1ccc(-c2ccccn2)cn1)c1cncnc1 | 612 nM | 651 nM |  |
| Cc1ncncc1C(=O)Nc1ccc(-c2ccccc2)cn1 | > 10000 nM | > 10000 nM |  |
| O=C(Nc1ccc2ccccc2n1)c1cnco1 |  |  | inhibition at 1 µM (MDCK-II [6]): -58% |
| Cc1nc(NC(=O)c2cnc3cccnc3c2)ccc1Cl |  |  | inhibition at 1 µM (MDCK-II [6]): 12% |
| O=C(Nc1cscn1)c1cncnc1 |  |  | inhibition at 1 µM (MDCK-II [6]): -103% |
| CSc1ncncc1C(=O)Nc1ccc(-c2ccccc2)cn1 | > 10000 nM | > 10000 nM |  |
| Cc1nc(NC(=O)c2cncnc2)ccc1I |  |  | inhibition at 10 µM [27]: 80%; inhibition at 1 µM (MDCK-II [6]): 249% |
| O=C(Nc1ncc[nH]1)c1nccs1 |  |  | inhibition at 1 µM (MDCK-II [6]): -67% |
| CC[C@]1(O)C[C@H]2CN(CCc3c([nH]c4ccccc34)[C@@](C(=O)OC)(c3cc4c(cc3OC)N(C=O)[C@H]3[C@@](O)(C(=O)OC)[C@H](OC(C)=O)[C@]5(CC)C=CCN6CC[C@]43[C@@H]65)C2)C1 [VINCRISTINE] |  |  | IC50 [3]: 400 to 684 nM |
